From patent US6645918B1, “N-([1,2,4]triazoloazinyl)thiophenesulfonamide compounds and their use as herbicides” (Dow AgroSciences LLC, priority 2000, dated 2003)

Tests used:
Assay type in all cases: in vivo
[1] = test system: chickweed (Stellaria media); assay: Postemergence herbicidal activity, chickweed; settings: foliar spray, visual after 2 weeks, 0 no injury, 100 complete kill
How it was run: (§1)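 Injury rated visually at 2 weeks, 0 (none) to 100% (complete kill), relative to carrier-sprayed controls. Foliar spray applied to 7–21-day-old seedlings at first or second true leaf, with rates in ppm (1 ppm ≈ 1 g/ha) in an aqueous acetone/DMSO/crop oil/surfactant mix.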

[2] = test system: cocklebur (Xanthium strumarium); assay: Postemergence herbicidal activity, cocklebur; settings: foliar spray, visual after 2 weeks, 0 no injury, 100 complete kill
How it was run: as §1

[3] = test system: lambsquarters (Chenopodium album); assay: Postemergence herbicidal activity, lambsquarters; settings: foliar spray, visual after 2 weeks, 0 no injury, 100 complete kill
How it was run: as §1

[4] = test system: morningglory (Ipomoea hederacea); assay: Postemergence herbicidal activity, morningglory; settings: foliar spray, visual after 2 weeks, 0 no injury, 100 complete kill
How it was run: as §1

[5] = test system: pigweed (Amaranthus retroflexus); assay: Postemergence herbicidal activity, pigweed; settings: foliar spray, visual after 2 weeks, 0 no injury, 100 complete kill
How it was run: as §1

[6] = test system: velvetleaf (Abutilion theophrasti); assay: Postemergence herbicidal activity, velvetleaf; settings: foliar spray, visual after 2 weeks, 0 no injury, 100 complete kill
How it was run: as §1

viola (Viola tricolor) = assay: Postemergence herbicidal activity, viola; settings: foliar spray, visual after 2 weeks, 0 no injury, 100 complete kill
How it was run: as §1

[7] = test system: wild buckwheat (Polygonum convolvulus); assay: Postemergence herbicidal activity, wild buckwheat; settings: foliar spray, visual after 2 weeks, 0 no injury, 100 complete kill
Method: Seeds of the desired test plant species were planted in Grace-Sierra MetroMix® 306 planting mixture, which typically has a pH of 6.0 to 6.8 and an organic matter content of about 30 percent, in plastic pots with a surface area of 64 square centimeters. When required to ensure good germination and healthy plants, a fungicide treatment and/or other chemical or physical treatment was applied. The plants were grown for 7-21 days in a greenhouse with an approximately 15 hr photoperiod which was maintained at about 23-29° C. during the day and 22-28° C. during the night. Nutrients and water were added on a regular basis and supplemental lighting was provided with overhead metal halide 1000 Watt lamps as necessary. The plants were employed for testing when they reached the first or second true leaf stage. A weighed amount of each test compound, determined by the highest rate to be tested, was placed in a 20 mL glass vial and was dissolved in 4 mL of a 97:3 v/v (volume/volume) mixture of acetone and dimethyl sulfoxide to obtain concentrated stock solutions. […] The concentrated stock solutions obtained were diluted with an aqueous mixture containing acetone, water, iso-propyl alcohol, dimethyl sulfoxide, Atplus 411F crop oil concentrate, and Triton X-155 surfactant (methylenebisdiamyl phenoxy polyethoxy ethanol) in a 48.5:39:10:1.5:1.0:0.02 v/v ratio to obtain spray solutions of known concentration. The solutions containing the highest concentration to be tested were prepared by diluting 2 mL aliquots of the stock solution with 13 mL of the mixture and lower concentrations were prepared by dilution of appropriate smaller portions of the stock solution. Approximately 1.5 mL aliquots of each solution of known concentration were sprayed evenly onto each of the test plant pots using a DeVilbiss atomizer driven by compressed air pressure of 2 to 4 psi (140 to 280 kilopascals) to obtain thorough coverage of each plant. Control plants were sprayed in the same manner with the aqueous mixture. In this test an application rate of 1 ppm results in the application of approximately 1 g/ha. The treated plants and control plants were placed in a greenhouse as described above and watered by sub-irrigation to prevent wash-off of the test compounds. After 2 weeks the condition of the test plants as compared with that of the untreated plants was determined visually and scored on a scale of 0 to 100 percent where 0 corresponds to no injury and 100 corresponds to complete kill.

[8] = test system: blackgrass (Alopecurus myosuroides); assay: Postemergence herbicidal activity, blackgrass; settings: foliar spray, visual after 2 weeks, 0 no injury, 100 complete kill
How it was run: as §1

[9] = test system: giant foxtail (Setaria faberi); assay: Postemergence herbicidal activity, giant foxtail; settings: foliar spray, visual after 2 weeks, 0 no injury, 100 complete kill
How it was run: as §1

[10] = test system: Rox orange sorghum (Sorghum bicolor); assay: Postemergence herbicidal activity, Rox orange sorghum; settings: foliar spray, visual after 2 weeks, 0 no injury, 100 complete kill
How it was run: as §1

wild oats (Avena fatua) [11] = assay: Postemergence herbicidal activity, wild oats; settings: foliar spray, visual after 2 weeks, 0 no injury, 100 complete kill
How it was run: as §1

[12] = test system: cocklebur (Xanthium strumarium); assay: Preemergence herbicidal activity, cocklebur; settings: 35 g/Ha, soil spray, visual after 3 weeks; 0 no injury, 100 complete kill or no germination
How it was run: (§2)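 Ratings are percent injury assessed visually three weeks after treatment, comparing emerged treated plants with untreated ones; 0 indicates no effect and 100 indicates plants killed or not germinated. Compound was sprayed on the soil of seeded pots at up to 4.48 kg/ha.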

[13] = test system: lambsquarters (Chenopodium album); assay: Preemergence herbicidal activity, lambsquarters; settings: 35 g/Ha, soil spray, visual after 3 weeks; 0 no injury, 100 complete kill or no germination
How it was run: as §2

[14] = test system: morningglory (Ipomoea hederacea); assay: Preemergence herbicidal activity, morningglory; settings: 35 g/Ha, soil spray, visual after 3 weeks; 0 no injury, 100 complete kill or no germination
How it was run: as §2

[15] = test system: pigweed (Amaranthus retroflexus); assay: Preemergence herbicidal activity, pigweed; settings: 35 g/Ha, soil spray, visual after 3 weeks; 0 no injury, 100 complete kill or no germination
How it was run: as §2

[16] = test system: velvetleaf (Abutilion theophrasti); assay: Preemergence herbicidal activity, velvetleaf; settings: 35 g/Ha, soil spray, visual after 3 weeks; 0 no injury, 100 complete kill or no germination
How it was run: as §2

[17] = test system: wild poinsettia (Euphorbia heterophylla); assay: Preemergence herbicidal activity, wild poinsettia; settings: 35 g/Ha, soil spray, visual after 3 weeks; 0 no injury, 100 complete kill or no germination
How it was run: as §2

[18] = test system: blackgrass (Alopecurus myosuroides); assay: Preemergence herbicidal activity, blackgrass; settings: 35 g/Ha, soil spray, visual after 3 weeks; 0 no injury, 100 complete kill or no germination
How it was run: as §2

[19] = test system: barnyardgrass (Echinochloa crus-galli); assay: Preemergence herbicidal activity, barnyardgrass; settings: 35 g/Ha, soil spray, visual after 3 weeks; 0 no injury, 100 complete kill or no germination
How it was run: as §2

[20] = test system: crabgrass (Digitaria sanguinalis); assay: Preemergence herbicidal activity, crabgrass; settings: 35 g/Ha, soil spray, visual after 3 weeks; 0 no injury, 100 complete kill or no germination
How it was run: as §2

[21] = test system: giant foxtail (Setaria faberi); assay: Preemergence herbicidal activity, giant foxtail; settings: 35 g/Ha, soil spray, visual after 3 weeks; 0 no injury, 100 complete kill or no germination
How it was run: as §2

[22] = test system: Rox orange sorghum (Sorghum bicolor); assay: Preemergence herbicidal activity, Rox orange sorghum; settings: 35 g/Ha, soil spray, visual after 3 weeks; 0 no injury, 100 complete kill or no germination
How it was run: as §2

wild oats (Avena fatua) [23] = assay: Preemergence herbicidal activity, wild oats; settings: 35 g/Ha, soil spray, visual after 3 weeks; 0 no injury, 100 complete kill or no germination
How it was run: as §2

Q: Which results are given for `COc1cc(OC)n2nc(NS(=O)(=O)c3sc(Cl)cc3OC)nc2n1` [Compound 4]?
A: STEME postemergence injury score 0-100 ([1]; 15.6 ppm): 60%; XANST postemergence injury score 0-100 ([2]; 15.6 ppm): 60%; CHEAL postemergence injury score 0-100 ([3]; 15.6 ppm): 90%; IPOHE postemergence injury score 0-100 ([4]; 15.6 ppm): 60%; AMARE postemergence injury score 0-100 ([5]; 15.6 ppm): 100%; ABUTH postemergence injury score 0-100 ([6]; 15.6 ppm): 70%; VIOTR postemergence injury score 0-100 (viola (Viola tricolor); 15.6 ppm): 60%; POLCO postemergence injury score 0-100 ([7]; 15.6 ppm): 90%; ALOMY postemergence injury score 0-100 ([8]; 15.6 ppm): 70%; SETFA postemergence injury score 0-100 ([9]; 15.6 ppm): 85%; SORBI postemergence injury score 0-100 ([10]; 15.6 ppm): 70%; AVEFA postemergence injury score 0-100 (wild oats (Avena fatua) [11]; 15.6 ppm): 60%; XANST preemergence injury score 0-100 [12]: 0%; CHEAL preemergence injury score 0-100 [13]: 80%; IPOHE preemergence injury score 0-100 [14]: 50%; AMARE preemergence injury score 0-100 [15]: 100%; ABUTH preemergence injury score 0-100 [16]: 70%; EPHHL preemergence injury score 0-100 [17]: 40%; ALOMY preemergence injury score 0-100 [18]: 95%; ECHCG preemergence injury score 0-100 [19]: 0%; DIGSA preemergence injury score 0-100 [20]: 90%; SETFA preemergence injury score 0-100 [21]: 90%; SORBI preemergence injury score 0-100 [22]: 80%; AVEFA preemergence injury score 0-100 (wild oats (Avena fatua) [23]): 60%

Q: Which “STEME postemergence injury score 0-100” value ([1]; 31.3 ppm) does the source give for `COc1csc(C)c1S(=O)(=O)Nc1nc2c(Cl)cnc(OC)n2n1` [Compound 22] here?
A: 80%

Q: And the “XANST postemergence injury score 0-100” value ([2]; 31.3 ppm)?
A: 90%

Q: And the “CHEAL postemergence injury score 0-100” value ([3]; 31.3 ppm)?
A: 90%

Q: And the “IPOHE postemergence injury score 0-100” value ([4]; 31.3 ppm)?
A: 90%

Q: What about the “AMARE postemergence injury score 0-100” value ([5]; 31.3 ppm) of the same compound?
A: 100%

Q: And the “ABUTH postemergence injury score 0-100” value ([6]; 31.3 ppm)?
A: 70%

Q: What about the “VIOTR postemergence injury score 0-100” value (viola (Viola tricolor); 31.3 ppm) of the same compound?
A: 80%

Q: What about the “POLCO postemergence injury score 0-100” value ([7]; 31.3 ppm) of the same compound?
A: 90%

Q: What about the “ALOMY postemergence injury score 0-100” value ([8]; 31.3 ppm) of the same compound?
A: 60%

Q: What about the “SETFA postemergence injury score 0-100” value ([9]; 31.3 ppm) of the same compound?
A: 80%

Q: And the “SORBI postemergence injury score 0-100” value ([10]; 31.3 ppm)?
A: 95%

Q: And the “AVEFA postemergence injury score 0-100” value (wild oats (Avena fatua) [11]; 31.3 ppm)?
A: 50%

Q: What about the “XANST preemergence injury score 0-100” value [12] of the same compound?
A: 80%

Q: And the “CHEAL preemergence injury score 0-100” value [13]?
A: 98%

Q: What about the “IPOHE preemergence injury score 0-100” value [14] of the same compound?
A: 98%

Q: And the “AMARE preemergence injury score 0-100” value [15]?
A: 100%

Q: And the “ABUTH preemergence injury score 0-100” value [16]?
A: 100%

Q: And the “EPHHL preemergence injury score 0-100” value [17]?
A: 80%

Q: And the “ALOMY preemergence injury score 0-100” value [18]?
A: 70%

Q: And the “ECHCG preemergence injury score 0-100” value [19]?
A: 100%

Q: And the “DIGSA preemergence injury score 0-100” value [20]?
A: 98%

Q: What about the “SETFA preemergence injury score 0-100” value [21] of the same compound?
A: 100%

Q: What about the “SORBI preemergence injury score 0-100” value [22] of the same compound?
A: 100%

Q: What about the “AVEFA preemergence injury score 0-100” value (wild oats (Avena fatua) [23]) of the same compound?
A: 70%
